Test results published in patent US8372967B2, “Compounds and methods for modulating expression of GCCR” (Isis Pharmaceuticals, Inc., priority 2006, dated 2013).
Strand notation (5' to 3'): a small letter for the sugar, then the base; units joined by * are phosphorothioate-linked, units joined directly phosphodiester-linked; [ ] holds rarer units or linkages, { } end groups; capitals alone tell only the bases. e = 2'-O-(2-methoxyethyl) (MOE); [5mC] = 5-methylcytosine; d = 2'-deoxy (DNA)

What was measured:
DGAT2 mRNA = experiment: Antisense inhibition of DGAT2 in A10 cells, 75 nM (Table 81); type: cell-based, rat; details: approximately 24 hours
Experimental: Short antisense compounds targeted to a DGAT2 nucleic acid were tested for their effects on DGAT2 mRNA in vitro. Cultured A10 cells in a 96-well plate were treated with 75 nM of short antisense compound. After a treatment period of approximately 24 hours, RNA was isolated from the cells and DGAT2 mRNA levels were measured by quantitative real-time PCR, as described herein. DGAT2 mRNA levels were adjusted according to total RNA content as measured by RIBOGREEN®. Results are presented as percent inhibition of DGAT2, relative to untreated control cells in Table 81.

rat DGAT2 mRNA = experiment: Dose-dependent inhibition of DGAT2 in A10 cells (Tables 82, 83); type: cell-based
Experimental: Additional short antisense compounds targeted to DGAT2 mRNA were tested in vitro in a dose-response experiment. A10 cells were prepared as described above and treated with 6.25, 12.5, 25.0, 50.0, 100.0, and 200.0 nM short antisense compounds to determine if DGAT2 inhibition occurs in a dose-dependent manner. […] Results are presented as percent inhibition, relative to untreated control cells.
Additional short antisense compounds targeted to DGAT2 mRNA were tested in vitro. A10 cells were prepared as described above and treated with 0.62, 1.85, 5.56, 16.67, 50.0, and 150.0 nM short antisense compounds to determine if DGAT2 inhibition occurs in a dose-dependent manner. DGAT2 mRNA was measured using quantitative real-time PCR, as described herein. […] Results are presented as percent inhibition of rat DGAT2, relative to untreated control cells.

Substance | % Control (DGAT2 mRNA) | percent inhibition of rat DGAT2 (rat DGAT2 mRNA; 0.62 nM (Table 83)) | percent inhibition of rat DGAT2 (rat DGAT2 mRNA; 1.85 nM (Table 83)) | percent inhibition of rat DGAT2 (rat DGAT2 mRNA; 5.56 nM (Table 83)) | percent inhibition of rat DGAT2 (rat DGAT2 mRNA; 16.67 nM (Table 83)) | percent inhibition of rat DGAT2 (rat DGAT2 mRNA; 50 nM (Table 83)) | percent inhibition of rat DGAT2 (rat DGAT2 mRNA; 150 nM (Table 83))
372491 (antisense eA*e[5mC]*eA*dT*dG*dA*dG*dG*dA*dT*dG*dA*d[5mC]*eA*e[5mC]*eT) [compound 372491] | 80 % Control |  |  |  |  |  | 
372500 (antisense eG*eT*eG*dT*dG*dT*d[5mC]*dT*dT*d[5mC]*dA*d[5mC]*d[5mC]*eA*eG*e[5mC]) [compound 372500] | 16 % Control | 0% | 0% | 0% | 18% | 64% | 88%
372501 (antisense eT*eT*eG*dT*dG*dT*dG*dT*d[5mC]*dT*dT*d[5mC]*dA*e[5mC]*e[5mC]*eA) [compound 372501] | 28 % Control | 1% | 5% | 10% | 11% | 25% | 68%
372503 (antisense eG*e[5mC]*eA*dG*dG*dT*dT*dG*dT*dG*dT*dG*dT*e[5mC]*eT*eT) [compound 372503] | 35 % Control | 7% | 10% | 4% | 25% | 54% | 80%
